Measured values reported in patent publication US12305171B2, “Compositions and methods for treating cancer” (bioAffinity Technologies, Inc., priority 2018, dated 2025).

How the values were obtained:
Assay in all cases: lentiviral shRNA knockdown of CD320 and LRP2, cell growth observation
Format in all cases: cell-based
Parameters in all cases: key: +++: cells unaffected compared to shSCR (control); ++: cells modestly affected compared to shSCR (control); +: cells significantly affected compared to shSCR (control); 0: vast majority of cells killed compared to shSCR (control)
[1] = test system: GM05659 fibroblasts; conditions: GM05659, normal cells
Text: (§1) Mechanistic investigations into the selectivity of porphyrin uptake by cancer cells led to several nonobvious compounds and methods of using the compound(s). It was discovered that the knockdown of the expression of either CD320 gene or LRP2 gene or the simultaneous knockdown of the expression of CD320 gene and LRP2 gene caused cell death or inhibition of cell growth in a panel of lung cancer cell lines, compared to normal fibroblasts. The experimental outline is illustrated in FIG. 1. In these experiments, cells were plated on day 0. The next day (day 1), virus particles encoding short hairpin RNAs (shRNAs) directed to the CD320 gene and the LRP2 gene or an irrelevant shRNA control were added to the cell culture together with protamine sulfate, a reagent that facilitates cell entry of the virus particles.
(§2) FIG. 1 illustrates an experimental design for knocking down CD320 and LRP2 in a cell. Cells were plated on day 0. The next day (day 1), virus particles encoding short hairpin RNAs (shRNAs) directed at the CD320 and LRP2 mRNA or a non-targeting shRNA control were added to the cell culture together with protamine sulfate, a reagent that facilitates cell entry of the virus particles. […] Each shRNA coding sequence was also combined with a unique drug resistance gene, which would allow for selecting those cells that had taken up the shRNA; cells that had not taken up the shRNA would not survive. On day 2, drug selection was started. On day 3, the cells were harvested and plated in a new dish. Only the cells with a drug resistance gene, i.e., those cells that had taken up shRNA virus particles would survive this re-plating procedure. From day 4 on, each culture was closely observed for cell growth. Cells infected with the non-targeting negative control shRNA continued growing—data not shown.
FIGS. 2 A-C illustrates sensitivity of cancer cell lines to knockdown of CD320 and LRP2. […] The fields of cells in FIG. 2A were counted and quantified and illustrated in FIG. 2B. […]

[2] = test system: H1993; conditions: H1993, lung cells
Text: as §1, §2
(§3) The Each vector that carried a shRNA coding sequence also contained a unique drug resistance gene which would allow for selecting those cells that had taken up the shRNA as those cells that had not taken up the shRNA having the unique drug resistance gene would not survive. On day 2, drug selection was started. On day 3, the cells were harvested and plated in a new dish. Only the cells with a drug resistance gene, i.e., those cells that had taken up shRNA virus particles would survive this re-plating procedure. From day 4 on, each culture was closely observed for cell growth. The cells that were infected with the irrelevant control shRNA kept on growing as expected (since the shRNA was essentially a non-functional shRNA)—data not shown.
(§4) Additional cancer cell lines were also treated with the compounds described herein to determine whether cancer cell lines were more susceptible to growth inhibition and toxicity as compared to non-cancer cells of the same origin. Cell lines from skin, prostate, and brain cancers were screened similarly to the experimental outline in FIG. 1. Table 3 summarizes the effects of simultaneous knockdown of CD320 and LRP2 in cancer and normal cells.

[3] = test system: DU-145; conditions: DU-145, prostate cells
Text: as §1, §2, §3, §4

[4] = test system: GM00701; conditions: GM00701, normal cells
Text: as §1, §2, §3, §4

[5] = test system: HCC15; conditions: HCC15, lung cells
Text: as §1, §2, §3, §4

[6] = test system: LncAP; conditions: prostate cells
Text: as §1, §2, §3, §4

[7] = test system: T98G; conditions: glioblastoma
Text: as §1, §2, §3, §4

[8] = test system: U251MG; conditions: glioblastoma
Text: as §1, §2, §3, §4

[9] = test system: H157; conditions: H157, lung cells
Text: as §1, §2, §3, §4

[10] = test system: A172; conditions: A172, glioblastoma
Text: as §1, §2, §3, §4

[11] = test system: PC3; conditions: PC3, prostate cells
Text: as §1, §2, §3, §4

[12] = test system: H358; conditions: H358, lung cells
Text: as §1, §2, §3, §4

[13] = test system: MDA-MB-4353; conditions: MDA-MB-4353, melanoma cells
Text: as §1, §2, §3, §4

[14] = test system: U343; conditions: U343, glioblastoma
Text: as §1, §2, §3, §4

Substance	cells affected compared to shSCR (control) [1]	cells affected compared to shSCR (control) [2]	cells affected compared to shSCR (control) [3]	cells affected compared to shSCR (control) [4]	cells affected compared to shSCR (control) [5]	cells affected compared to shSCR (control) [6]	cells affected compared to shSCR (control) [7]	cells affected compared to shSCR (control) [8]	cells affected compared to shSCR (control) [9]	cells affected compared to shSCR (control) [10]	cells affected compared to shSCR (control) [11]	cells affected compared to shSCR (control) [12]	cells affected compared to shSCR (control) [13]	cells affected compared to shSCR (control) [14]
shCD320: lentiviral shRNA targeting CD320 (NM_016579.3), location 1006-1026; SEQ ID NO. 943/944 (sense CCCTCAGAGACCTGAGCTCTT; antisense AAGAGCTCAGGTCTCTGAGGG) [lentiviral shRNA targeting CD320 (NM_016579.3), location 1006-1026; 943/944]	+++	++	++	++	+	++	+++	+	+	+	+++	++	++	+++
shLRP2: lentiviral shRNA targeting LRP2 (NM_004525.2), location 2800-2820; SEQ ID NO. 945/946 (sense CCTGTAATAAACACTACTCTT; antisense AAGAGTAGTGTTTATTACAGG) [lentiviral shRNA targeting LRP2 (NM_004525.2), location 2800-2820; 945/946]	+++	++	+	+++	+	++	++	++	++	+	++	++	+	++
shSCR: non-targeting control shRNA in lentiviral vector; SEQ ID NO. 941/942 [reference compound]	+++	+++	+++	+++	+++	+++	+++	+++	+++	+++	+++	+++	+++	+++
